Laboratory results published in ChEMBL document CHEMBL2010711, “Synthesis and comparative evaluation of 4-oxa- and 4-aza-podophyllotoxins as antiproliferative microtubule destabilizing agents” (Bioorg Med Chem Lett, 2012).

Experiments:
Format in all cases: functional
SNB-75 = assay: Cytotoxicity against human SNB75 cells after 48 hrs by trypan blue dye exclusion assay; details: SNB-75, 48 h
COLO 205 = assay: Cytotoxicity against human COLO205 cells after 48 hrs by trypan blue dye exclusion assay; details: COLO 205, 48 h
HCC 2998 = assay: Cytotoxicity against human HCC2998 cells after 48 hrs by trypan blue dye exclusion assay; details: HCC 2998, 48 h
SR = assay: Cytotoxicity against human SR cells after 48 hrs by trypan blue dye exclusion assay
SW-620 = assay: Cytotoxicity against human SW620 cells after 48 hrs by trypan blue dye exclusion assay; details: SW-620, 48 h
T47D = assay: Cytotoxicity against human T47D cells after 48 hrs by trypan blue dye exclusion assay
LOX IMVI = assay: Cytotoxicity against human LOXIMVI cells after 48 hrs by trypan blue dye exclusion assay
BT-549 = assay: Cytotoxicity against human BT549 cells after 48 hrs by trypan blue dye exclusion assay; details: BT-549, 48 h
MOLT-4 = assay: Cytotoxicity against human MOLT4 cells after 48 hrs by trypan blue dye exclusion assay; details: MOLT-4, 48 h
UACC-62 = assay: Cytotoxicity against human UACC62 cells after 48 hrs by trypan blue dye exclusion assay; details: UACC-62, 48 h
SK-MEL-28 = assay: Cytotoxicity against human SK-MEL-28 cells after 48 hrs by trypan blue dye exclusion assay; details: SK-MEL-28, 48 h
HOP-62 = assay: Cytotoxicity against human HOP62 cells after 48 hrs by trypan blue dye exclusion assay; details: HOP-62, 48 h
A549 = assay: Cytotoxicity against human A549 cells after 48 hrs by trypan blue dye exclusion assay; details: A549, 48 h
PC-3 = assay: Cytotoxicity against human PC3 cells after 48 hrs by trypan blue dye exclusion assay; details: PC-3, 48 h
NCI-H460 = assay: Cytotoxicity against human NCI-H460 cells after 48 hrs by trypan blue dye exclusion assay; details: NCI-H460, 48 h
RXF 393 = assay: Cytotoxicity against human RXF393 cells after 48 hrs by trypan blue dye exclusion assay; details: RXF 393, 48 h
K562 = assay: Cytotoxicity against human K562 cells after 48 hrs by trypan blue dye exclusion assay; details: K562, 48 h
NCI/ADR-RES = assay: Cytotoxicity against human NCI/ADR-RES cells after 48 hrs by trypan blue dye exclusion assay
SN12C = assay: Cytotoxicity against human SN12C cells after 48 hrs by trypan blue dye exclusion assay
SNB-19 = assay: Cytotoxicity against human SNB19 cells after 48 hrs by trypan blue dye exclusion assay; details: SNB-19, 48 h
KM12 = assay: Cytotoxicity against human KM12 cells after 48 hrs by trypan blue dye exclusion assay; details: KM12, 48 h
DU-145 = assay: Cytotoxicity against human DU145 cells after 48 hrs by trypan blue dye exclusion assay; details: DU-145, 48 h
MDA-MB-231 = assay: Cytotoxicity against human MDA-MB-231 cells after 48 hrs by trypan blue dye exclusion assay; details: MDA-MB-231, 48 h
SF-539 = assay: Cytotoxicity against human SF539 cells after 48 hrs by trypan blue dye exclusion assay; details: SF-539, 48 h
HCT-116 = assay: Cytotoxicity against human HCT116 cells after 48 hrs by trypan blue dye exclusion assay; details: HCT-116, 48 h
OVCAR-4 = assay: Cytotoxicity against human OVCAR4 cells after 48 hrs by trypan blue dye exclusion assay; details: OVCAR-4, 48 h
MDA-MB-468 = assay: Cytotoxicity against human MDA-MB-468 cells after 48 hrs by trypan blue dye exclusion assay; details: MDA-MB-468, 48 h
ACHN = assay: Cytotoxicity against human ACHN cells after 48 hrs by trypan blue dye exclusion assay
OVCAR-3 = assay: Cytotoxicity against human OVCAR3 cells after 48 hrs by trypan blue dye exclusion assay; details: OVCAR-3, 48 h
M14 = assay: Cytotoxicity against human M14 cells after 48 hrs by trypan blue dye exclusion assay; details: M14, 48 h
NCI-H322M = assay: Cytotoxicity against human NCI-H322M cells after 48 hrs by trypan blue dye exclusion assay
[1] = Cytotoxicity against human Hs 578T cells after 48 hrs by trypan blue dye exclusion assay
NCI-H226 = assay: Cytotoxicity against human NCI-H226 cells after 48 hrs by trypan blue dye exclusion assay; details: NCI-H226, 48 h
Malme-3M = assay: Cytotoxicity against human MALME-3M cells after 48 hrs by trypan blue dye exclusion assay
SK-MEL-2 = assay: Cytotoxicity against human SK-MEL-2 cells after 48 hrs by trypan blue dye exclusion assay; details: SK-MEL-2, 48 h
SF-268 = assay: Cytotoxicity against human SF268 cells after 48 hrs by trypan blue dye exclusion assay; details: SF-268, 48 h
MCF7 = assay: Cytotoxicity against human MCF7 cells after 48 hrs by trypan blue dye exclusion assay; details: MCF7, 48 h
NCI-H23 = assay: Cytotoxicity against human NCI-H23 cells after 48 hrs by trypan blue dye exclusion assay; details: NCI-H23, 48 h
HT-29 = assay: Cytotoxicity against human HT-29 cells after 48 hrs by trypan blue dye exclusion assay; details: HT-29, 48 h
SK-MEL-5 = assay: Cytotoxicity against human SK-MEL-5 cells after 48 hrs by trypan blue dye exclusion assay; details: SK-MEL-5, 48 h
EKVX = assay: Cytotoxicity against human EKVX cells after 48 hrs by trypan blue dye exclusion assay
MDA-MB-435 = assay: Cytotoxicity against human MDA-MB-435 cells after 48 hrs by trypan blue dye exclusion assay; details: MDA-MB-435, 48 h
RPMI-8226 = assay: Cytotoxicity against human RPMI8226 cells after 48 hrs by trypan blue dye exclusion assay; details: RPMI-8226, 48 h
A498 = assay: Cytotoxicity against human A498 cells after 48 hrs by trypan blue dye exclusion assay; details: A498, 48 h
SK-OV-3 = assay: Cytotoxicity against human SKOV3 cells after 48 hrs by trypan blue dye exclusion assay; details: SK-OV-3, 48 h
OVCAR-8 = assay: Cytotoxicity against human OVCAR8 cells after 48 hrs by trypan blue dye exclusion assay; details: OVCAR-8, 48 h
IGROV-1 = assay: Cytotoxicity against human IGROV1 cells after 48 hrs by trypan blue dye exclusion assay; details: IGROV-1, 48 h
CCRF-CEM = assay: Cytotoxicity against human CCRF-CEM cells after 48 hrs by trypan blue dye exclusion assay
TK-10 = assay: Cytotoxicity against human TK10 cells after 48 hrs by trypan blue dye exclusion assay; details: TK-10, 48 h
U-251 = assay: Cytotoxicity against human U251 cells after 48 hrs by trypan blue dye exclusion assay; details: U-251, 48 h
HCT-15 = assay: Cytotoxicity against human HCT15 cells after 48 hrs by trypan blue dye exclusion assay; details: HCT-15, 48 h
UACC-257 = assay: Cytotoxicity against human UACC257 cells after 48 hrs by trypan blue dye exclusion assay; details: UACC-257, 48 h
HOP-92 = assay: Cytotoxicity against human HOP92 cells after 48 hrs by trypan blue dye exclusion assay; details: HOP-92, 48 h
NCI-H522 = assay: Cytotoxicity against human NCI-H522 cells after 48 hrs by trypan blue dye exclusion assay; details: NCI-H522, 48 h
HL-60(TB) = assay: Cytotoxicity against human HL-60(TB) cells after 48 hrs by trypan blue dye exclusion assay; details: HL-60, 48 h
UO-31 = assay: Cytotoxicity against human UO31 cells after 48 hrs by trypan blue dye exclusion assay; details: UO-31, 48 h
CAKI-1 = assay: Cytotoxicity against human CAKI-1 cells after 48 hrs by trypan blue dye exclusion assay; details: CAKI-1, 48 h
SF-295 = assay: Cytotoxicity against human SF295 cells after 48 hrs by trypan blue dye exclusion assay; details: SF-295, 48 h
786-0 = assay: Cytotoxicity against human 786-0 cells after 48 hrs by trypan blue dye exclusion assay; details: 786-0, 48 h

## COc1cc([C@@H]2c3cc4c(cc3[C@H](O)[C@H]3COC(=O)[C@H]23)OCO4)cc(OC)c1OC [PODOFILOX]
SNB-75
  GI50: 659 nM
COLO 205
  GI50: 10 nM
HCC 2998
  GI50: 12.3 nM
SR
  GI50: 10 nM
SW-620
  GI50: 10 nM
T47D
  GI50: 84500 nM
LOX IMVI
  GI50: 10 nM
BT-549
  GI50: 10 nM
MOLT-4
  GI50: 10 nM
UACC-62
  GI50: 10 nM
SK-MEL-28
  GI50: 10 nM
HOP-62
  GI50: 21.1 nM
A549
  GI50: 13.8 nM
PC-3
  GI50: 10 nM
NCI-H460
  GI50: 10.6 nM
RXF 393
  GI50: 10 nM
K562
  GI50: 215 nM
NCI/ADR-RES
  GI50: 10 nM
SN12C
  GI50: 17.1 nM
SNB-19
  GI50: 10 nM
KM12
  GI50: 10 nM
DU-145
  GI50: 10 nM
MDA-MB-231
  GI50: 10 nM
SF-539
  GI50: 10 nM
HCT-116
  GI50: 10 nM
OVCAR-4
  GI50: 17.5 nM
MDA-MB-468
  GI50: 10 nM
ACHN
  GI50: 10 nM
OVCAR-3
  GI50: 11.3 nM
M14
  GI50: 13.1 nM
NCI-H322M
  GI50: 10 nM
[1]
  GI50: 10 nM
NCI-H226
  GI50: 10 nM
Malme-3M
  GI50: 47300 nM
SK-MEL-2
  GI50: 14.9 nM
SF-268
  GI50: 10 nM
MCF7
  GI50: 10 nM
NCI-H23
  GI50: 10 nM
HT-29
  GI50: 10 nM
SK-MEL-5
  GI50: 10 nM
EKVX
  GI50: 10 nM
MDA-MB-435
  GI50: 10 nM
RPMI-8226
  GI50: 10 nM
A498
  GI50: 10 nM
SK-OV-3
  GI50: 10 nM
OVCAR-8
  GI50: 10 nM
IGROV-1
  GI50: 13.2 nM
CCRF-CEM
  GI50: 10 nM
TK-10
  GI50: 30.5 nM
U-251
  GI50: 10.7 nM
HCT-15
  GI50: 13.5 nM
UACC-257
  GI50: 10 nM
HOP-92
  GI50: 34.1 nM
NCI-H522
  GI50: 10 nM
HL-60(TB)
  GI50: 10 nM
UO-31
  GI50: 16.6 nM
CAKI-1
  GI50: 89.7 nM
SF-295
  GI50: 10 nM
786-0
  GI50: 16.9 nM
